Laboratory results from ChEMBL document CHEMBL3259563, “The discovery of potent and selective non-steroidal glucocorticoid receptor modulators, suitable for inhalation” (Bioorg Med Chem Lett, 2014).

Legend:
[1] = target: T1, Progesterone receptor (Homo sapiens, UniProt P06401); assay: Binding affinity to progesterone receptor (unknown origin)
T1 sequence (P06401 whole entry): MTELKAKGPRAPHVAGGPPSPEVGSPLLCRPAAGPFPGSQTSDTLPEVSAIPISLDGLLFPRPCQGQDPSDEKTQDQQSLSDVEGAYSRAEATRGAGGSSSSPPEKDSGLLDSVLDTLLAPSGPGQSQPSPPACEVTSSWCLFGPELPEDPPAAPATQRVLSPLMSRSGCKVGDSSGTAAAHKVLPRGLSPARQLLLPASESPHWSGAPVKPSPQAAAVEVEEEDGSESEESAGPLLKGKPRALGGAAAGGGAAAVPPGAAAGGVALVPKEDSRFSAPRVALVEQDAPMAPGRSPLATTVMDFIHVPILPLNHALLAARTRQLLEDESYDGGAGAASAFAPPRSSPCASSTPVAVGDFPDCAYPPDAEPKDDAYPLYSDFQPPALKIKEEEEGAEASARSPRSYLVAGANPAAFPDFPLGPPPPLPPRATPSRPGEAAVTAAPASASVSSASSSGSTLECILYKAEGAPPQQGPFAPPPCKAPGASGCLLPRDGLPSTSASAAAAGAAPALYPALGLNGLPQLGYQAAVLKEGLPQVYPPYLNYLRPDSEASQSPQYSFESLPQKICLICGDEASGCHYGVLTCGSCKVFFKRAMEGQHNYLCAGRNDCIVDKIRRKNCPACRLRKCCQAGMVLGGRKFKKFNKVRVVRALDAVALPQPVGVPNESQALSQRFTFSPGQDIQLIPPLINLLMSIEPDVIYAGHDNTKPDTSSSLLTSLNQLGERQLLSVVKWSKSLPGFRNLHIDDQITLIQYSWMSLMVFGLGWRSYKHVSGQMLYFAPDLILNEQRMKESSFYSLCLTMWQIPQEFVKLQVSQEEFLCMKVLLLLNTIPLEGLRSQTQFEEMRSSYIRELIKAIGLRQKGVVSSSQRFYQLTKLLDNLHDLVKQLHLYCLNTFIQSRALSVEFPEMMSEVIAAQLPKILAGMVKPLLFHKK

[2] = target: T2, Estrogen receptor (Homo sapiens, UniProt P03372); assay: Binding affinity to ER-alpha (unknown origin)
T2 sequence (P03372 whole entry): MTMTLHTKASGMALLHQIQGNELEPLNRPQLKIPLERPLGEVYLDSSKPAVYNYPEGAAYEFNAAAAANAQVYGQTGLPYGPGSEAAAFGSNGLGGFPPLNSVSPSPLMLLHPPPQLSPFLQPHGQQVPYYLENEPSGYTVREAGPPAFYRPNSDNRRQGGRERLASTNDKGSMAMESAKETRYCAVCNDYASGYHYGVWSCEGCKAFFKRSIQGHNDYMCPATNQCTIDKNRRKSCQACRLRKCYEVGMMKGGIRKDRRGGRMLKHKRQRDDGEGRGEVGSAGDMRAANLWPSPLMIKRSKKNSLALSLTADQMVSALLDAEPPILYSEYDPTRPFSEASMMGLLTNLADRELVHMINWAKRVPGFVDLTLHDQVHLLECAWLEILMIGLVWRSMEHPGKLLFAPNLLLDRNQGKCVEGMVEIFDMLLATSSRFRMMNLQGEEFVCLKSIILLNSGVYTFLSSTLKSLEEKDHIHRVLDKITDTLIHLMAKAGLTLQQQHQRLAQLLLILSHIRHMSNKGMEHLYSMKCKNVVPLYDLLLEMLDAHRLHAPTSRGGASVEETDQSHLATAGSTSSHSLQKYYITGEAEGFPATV

[3] = target: Estrogen receptor beta (Homo sapiens, UniProt Q92731); assay: Binding affinity to ER-beta (unknown origin)
[4] = test system: Plasma; assay: Fraction unbound in human plasma; type: ADME, cell-free
[5] = Intrinsic clearance in rat microsomes; type: ADME, Microsome
[6] = test system: Hepatocyte; assay: Intrinsic clearance in rat hepatocytes; type: ADME, cell-based
[7] = target: Cytochrome P450 2D6 (Homo sapiens, UniProt P10635); assay: Inhibition of CYP2D6 (unknown origin); type: ADME
[8] = target: Cytochrome P450 3A4 (Homo sapiens, UniProt P08684); assay: Inhibition of CYP3A4 (unknown origin); type: ADME
[9] = target: Voltage-gated inwardly rectifying potassium channel KCNH2 (Homo sapiens, UniProt Q12809); assay: Inhibition of human ERG channel
[10] = Clearance in iv dosed rat; type: ADME, organism-based; conditions: in vivo
[11] = Half life in iv dosed rat; type: ADME, organism-based; conditions: in vivo
[12] = target: T3, Glucocorticoid receptor (Homo sapiens, UniProt P04150)
T3 sequence (P04150 whole entry): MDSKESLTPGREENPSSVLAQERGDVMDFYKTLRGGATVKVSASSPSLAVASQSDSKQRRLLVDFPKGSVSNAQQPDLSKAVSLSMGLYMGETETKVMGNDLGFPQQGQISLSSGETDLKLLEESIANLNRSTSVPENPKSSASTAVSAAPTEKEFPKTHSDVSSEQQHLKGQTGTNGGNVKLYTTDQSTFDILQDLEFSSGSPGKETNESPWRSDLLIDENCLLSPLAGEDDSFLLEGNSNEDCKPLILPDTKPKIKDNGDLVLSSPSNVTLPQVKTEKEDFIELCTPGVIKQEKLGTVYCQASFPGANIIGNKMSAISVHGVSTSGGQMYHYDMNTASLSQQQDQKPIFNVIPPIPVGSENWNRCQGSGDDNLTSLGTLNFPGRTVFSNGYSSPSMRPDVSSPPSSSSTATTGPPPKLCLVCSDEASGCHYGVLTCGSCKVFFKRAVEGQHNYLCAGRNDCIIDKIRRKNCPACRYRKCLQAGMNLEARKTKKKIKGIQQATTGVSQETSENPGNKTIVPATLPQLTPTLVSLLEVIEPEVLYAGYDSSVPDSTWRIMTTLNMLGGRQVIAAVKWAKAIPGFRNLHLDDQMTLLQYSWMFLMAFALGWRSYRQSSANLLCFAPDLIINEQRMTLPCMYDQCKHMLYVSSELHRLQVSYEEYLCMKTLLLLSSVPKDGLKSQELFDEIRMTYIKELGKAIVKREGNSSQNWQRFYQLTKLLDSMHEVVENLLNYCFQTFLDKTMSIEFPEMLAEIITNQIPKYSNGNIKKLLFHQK
Description: Agonist activity at glucocorticoid receptor in human Chago K1 cells assessed as gene transrepression by Lac-Z reporter gene assay

[13] = target: T3, Glucocorticoid receptor; remark: listed apart in the source
Description: Agonist activity at glucocorticoid receptor in human PBMC assessed as inhibition of LPS-stimulated TNF-alpha release

Cytochrome P450 3A4, sequence (P08684 whole entry): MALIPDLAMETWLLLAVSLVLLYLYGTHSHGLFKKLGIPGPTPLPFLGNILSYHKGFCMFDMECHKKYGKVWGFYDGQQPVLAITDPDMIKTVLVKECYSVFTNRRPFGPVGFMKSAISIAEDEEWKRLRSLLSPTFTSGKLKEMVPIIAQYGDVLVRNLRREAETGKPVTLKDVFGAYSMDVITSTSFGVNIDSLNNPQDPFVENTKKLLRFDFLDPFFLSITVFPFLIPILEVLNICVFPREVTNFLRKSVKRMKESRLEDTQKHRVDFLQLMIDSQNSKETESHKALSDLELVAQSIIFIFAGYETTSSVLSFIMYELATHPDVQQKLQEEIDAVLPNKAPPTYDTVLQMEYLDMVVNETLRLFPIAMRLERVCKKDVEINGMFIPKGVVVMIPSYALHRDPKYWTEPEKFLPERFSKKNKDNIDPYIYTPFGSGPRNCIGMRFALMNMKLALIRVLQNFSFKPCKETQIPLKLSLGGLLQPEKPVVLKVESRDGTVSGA
Cytochrome P450 2D6, sequence (P10635 whole entry): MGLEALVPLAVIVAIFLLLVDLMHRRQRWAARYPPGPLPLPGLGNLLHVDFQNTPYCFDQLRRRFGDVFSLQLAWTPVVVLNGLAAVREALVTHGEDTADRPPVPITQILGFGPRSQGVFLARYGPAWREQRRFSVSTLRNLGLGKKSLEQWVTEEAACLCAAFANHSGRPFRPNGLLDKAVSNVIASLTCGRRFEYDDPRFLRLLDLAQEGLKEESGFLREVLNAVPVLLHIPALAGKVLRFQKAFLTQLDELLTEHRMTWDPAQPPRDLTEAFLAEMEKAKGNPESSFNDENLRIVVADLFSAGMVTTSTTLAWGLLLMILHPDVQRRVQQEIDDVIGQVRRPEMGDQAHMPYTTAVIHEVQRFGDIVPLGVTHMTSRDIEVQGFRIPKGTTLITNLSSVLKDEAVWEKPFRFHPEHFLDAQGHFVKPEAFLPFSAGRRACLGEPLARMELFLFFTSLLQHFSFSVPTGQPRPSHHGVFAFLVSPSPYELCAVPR
Voltage-gated inwardly rectifying potassium channel KCNH2, sequence (Q12809 whole entry): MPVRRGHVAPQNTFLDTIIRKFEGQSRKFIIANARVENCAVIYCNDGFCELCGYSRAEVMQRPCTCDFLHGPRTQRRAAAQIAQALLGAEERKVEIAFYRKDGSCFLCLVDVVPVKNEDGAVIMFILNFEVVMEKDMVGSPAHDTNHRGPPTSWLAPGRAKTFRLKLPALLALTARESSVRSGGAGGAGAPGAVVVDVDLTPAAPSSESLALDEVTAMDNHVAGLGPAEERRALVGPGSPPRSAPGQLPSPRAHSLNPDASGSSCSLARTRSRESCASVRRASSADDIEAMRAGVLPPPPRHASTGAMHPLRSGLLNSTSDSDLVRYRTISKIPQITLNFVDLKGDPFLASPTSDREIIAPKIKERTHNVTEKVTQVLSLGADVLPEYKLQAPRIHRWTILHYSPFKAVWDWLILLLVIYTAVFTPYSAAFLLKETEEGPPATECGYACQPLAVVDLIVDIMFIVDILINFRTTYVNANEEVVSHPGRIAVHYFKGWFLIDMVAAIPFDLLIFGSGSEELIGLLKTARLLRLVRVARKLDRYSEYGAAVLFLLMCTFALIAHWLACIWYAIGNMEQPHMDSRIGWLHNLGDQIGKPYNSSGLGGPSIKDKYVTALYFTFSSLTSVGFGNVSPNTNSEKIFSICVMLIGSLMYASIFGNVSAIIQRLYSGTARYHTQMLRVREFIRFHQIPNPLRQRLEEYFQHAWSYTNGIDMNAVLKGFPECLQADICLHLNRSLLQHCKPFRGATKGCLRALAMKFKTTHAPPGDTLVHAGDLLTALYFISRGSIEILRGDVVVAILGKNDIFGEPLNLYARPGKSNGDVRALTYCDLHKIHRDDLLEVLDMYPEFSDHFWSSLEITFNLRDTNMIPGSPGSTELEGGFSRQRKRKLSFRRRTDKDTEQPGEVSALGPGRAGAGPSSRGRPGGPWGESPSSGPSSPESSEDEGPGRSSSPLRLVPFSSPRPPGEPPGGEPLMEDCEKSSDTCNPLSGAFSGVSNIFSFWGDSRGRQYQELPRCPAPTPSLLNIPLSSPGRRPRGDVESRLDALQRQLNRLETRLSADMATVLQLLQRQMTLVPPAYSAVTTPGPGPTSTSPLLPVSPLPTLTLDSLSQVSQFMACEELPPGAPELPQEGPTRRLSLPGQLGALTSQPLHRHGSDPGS
Estrogen receptor beta, sequence (Q92731 whole entry): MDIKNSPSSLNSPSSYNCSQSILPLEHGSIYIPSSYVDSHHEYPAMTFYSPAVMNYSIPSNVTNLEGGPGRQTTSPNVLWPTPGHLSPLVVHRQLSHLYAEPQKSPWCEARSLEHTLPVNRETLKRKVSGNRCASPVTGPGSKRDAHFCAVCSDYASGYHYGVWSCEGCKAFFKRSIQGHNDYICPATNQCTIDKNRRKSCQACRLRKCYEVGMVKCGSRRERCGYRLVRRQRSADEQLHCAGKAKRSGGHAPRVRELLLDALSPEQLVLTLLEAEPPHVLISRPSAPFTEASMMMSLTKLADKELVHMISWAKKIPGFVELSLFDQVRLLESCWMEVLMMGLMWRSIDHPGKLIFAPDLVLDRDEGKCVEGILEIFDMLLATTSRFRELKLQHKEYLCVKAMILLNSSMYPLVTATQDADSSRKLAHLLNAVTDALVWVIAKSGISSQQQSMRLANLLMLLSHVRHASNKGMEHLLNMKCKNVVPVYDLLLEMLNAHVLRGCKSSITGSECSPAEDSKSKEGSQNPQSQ

For `Cc1nn(C2CCCC2)c(C)c1S(=O)(=O)N[C@@H](C)CNc1cccc2c1cnn2-c1ccc(F)nc1`, the IC50 [1] was 4.5 µM, the IC50 [2] was greater than 5 µM and the IC50 [3] was greater than 5 µM. It also gave a Fu [4] of 0.005%, a microsomal CLint [5] greater than 200 µL/min/mg and a CLH [6] of 33 µL/min. For the same compound, the IC50 [7] was greater than 20 µM, the IC50 [8] was 22 µM and the IC50 [9] was 8.7 µM. The clearance [10] was 78 mL/min/kg, the half-life [11] was 6.4 h and the IC50 [12] was 0.0072 µM. It also gave an IC50 [13] of 0.014 µM.
